The experiment has as its target ROCK2 (human) (UniProt O75116). Put plainly: Assessment of ROCK2 Kinase Activity.

For 52 molecules, IC50 results are on record in the Kinase Knowledgebase extract (Sharma et al. 2016).

Sequence of ROCK2 (human) (O75116 whole entry, looked up): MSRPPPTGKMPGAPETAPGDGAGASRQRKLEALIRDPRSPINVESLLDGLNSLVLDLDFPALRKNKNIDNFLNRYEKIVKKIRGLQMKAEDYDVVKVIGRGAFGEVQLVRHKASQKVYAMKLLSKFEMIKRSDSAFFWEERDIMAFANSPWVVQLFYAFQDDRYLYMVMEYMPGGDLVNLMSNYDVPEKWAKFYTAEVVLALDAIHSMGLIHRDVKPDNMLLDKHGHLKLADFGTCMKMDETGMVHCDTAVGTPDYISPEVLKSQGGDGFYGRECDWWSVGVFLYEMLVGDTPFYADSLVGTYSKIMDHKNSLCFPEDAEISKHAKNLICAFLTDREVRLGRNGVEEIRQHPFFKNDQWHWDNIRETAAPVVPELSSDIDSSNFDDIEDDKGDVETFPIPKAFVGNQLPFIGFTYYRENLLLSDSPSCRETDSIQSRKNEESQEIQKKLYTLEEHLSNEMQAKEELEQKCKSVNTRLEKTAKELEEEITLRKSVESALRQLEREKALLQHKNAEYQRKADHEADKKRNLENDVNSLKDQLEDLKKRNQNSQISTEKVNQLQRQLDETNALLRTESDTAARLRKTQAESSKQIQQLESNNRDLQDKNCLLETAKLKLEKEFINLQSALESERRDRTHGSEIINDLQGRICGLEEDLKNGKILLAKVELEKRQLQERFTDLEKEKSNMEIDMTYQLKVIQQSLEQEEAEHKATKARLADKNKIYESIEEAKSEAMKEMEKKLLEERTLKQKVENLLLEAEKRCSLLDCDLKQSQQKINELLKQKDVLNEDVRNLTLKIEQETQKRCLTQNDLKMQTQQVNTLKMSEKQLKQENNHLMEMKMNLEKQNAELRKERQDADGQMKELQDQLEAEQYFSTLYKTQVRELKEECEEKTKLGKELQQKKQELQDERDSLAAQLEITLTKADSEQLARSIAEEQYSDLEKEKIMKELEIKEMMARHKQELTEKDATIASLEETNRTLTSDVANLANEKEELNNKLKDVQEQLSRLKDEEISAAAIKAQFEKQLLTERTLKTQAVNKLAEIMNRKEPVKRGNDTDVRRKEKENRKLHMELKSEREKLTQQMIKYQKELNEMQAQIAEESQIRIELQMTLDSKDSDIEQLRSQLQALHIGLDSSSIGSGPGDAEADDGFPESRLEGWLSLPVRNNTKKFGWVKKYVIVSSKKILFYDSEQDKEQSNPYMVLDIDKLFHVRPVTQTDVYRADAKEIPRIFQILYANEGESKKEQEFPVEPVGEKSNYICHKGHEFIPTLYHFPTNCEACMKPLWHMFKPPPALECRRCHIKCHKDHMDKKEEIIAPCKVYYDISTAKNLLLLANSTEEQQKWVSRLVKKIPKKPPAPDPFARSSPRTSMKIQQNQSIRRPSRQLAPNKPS

The IC50 is the concentration that inhibits the measured activity by half. A higher IC50 goes with lower potency. In turn, `COc1ccccc1CNC(=O)c1cn(CCCO)c2cc(-c3cn[nH]c3)ccc12` registered a concentration for half-maximal inhibition (IC50) of under 100 nM.

Regarding `COc1cccc(CNC(=O)c2cc3ccc(-c4c[nH]nc4C)nc3[nH]2)c1`, the IC50 is under 100 nM.

On to `COc1cccc(CNC(=O)c2nn(C)c3cc(-c4cn[nH]c4)ccc23)c1`, for which the concentration for half-maximal inhibition (IC50) is under 100 nM.

Turning to `COc1cccc(CNC(=O)c2cc3ccc(-c4cn[nH]c4)cc3[nH]2)c1`, the 50% inhibitory concentration (IC50) is under 100 nM.

On to `COc1cccc(CNC(=O)c2cn3cc(-c4cn[nH]c4)ccc3n2)c1`, for which the IC50 lay within 100 to 1000 nM.

Consider `O=C(NCC1CCCCC1)c1c[nH]c2cc(-c3cn[nH]c3)ccc12`, for which the IC50 is under 100 nM.

In turn, `COc1cccc(CN(CCN(C)C)C(=O)c2cc3ccc(-c4cn[nH]c4)nc3[nH]2)c1` displayed an IC50 of under 100 nM.

In turn, `COc1cccc(CN(CCN(C)C)C(=O)c2nn(CC3CC3)c3cc(-c4cn[nH]c4)ccc23)c1` returned an IC50 of under 100 nM.

With `COc1cccc(CNC(=O)c2cn(CCN3CCCC3)c3cc(-c4cn[nH]c4)ccc23)c1`, the 50% inhibitory concentration (IC50) is under 100 nM.

Turning to `COc1cccc(CN(CC2CC2)C(=O)c2n[nH]c3cc(-c4cn[nH]c4)ccc23)c1`, the IC50 is under 100 nM.

For `COc1cccc(CNC(=O)c2cn3cc(-c4ccnc(N)n4)ccc3n2)c1`, the IC50 fell in the range of 100 to 1000 nM.

`COc1cccc(CNC(=O)c2cc3ccc(-c4cn[nH]c4)nc3n2CCCO)c1`: the half-maximal inhibitory concentration (IC50) was under 100 nM.

In turn, `COc1cccc(CN(CCCN(C)C)C(=O)c2cn(C)c3cc(-c4cn[nH]c4)ccc23)c1` showed a half-inhibitory concentration (IC50) of under 100 nM.

As to `COc1ccccc1CNC(=O)c1n[nH]c2cc(-c3cn[nH]c3)ccc12`, the concentration for half-maximal inhibition (IC50) is under 100 nM.

`COc1cccc(CN(CCN2CCCC2)C(=O)c2cc3ccc(-c4cn[nH]c4)cc3[nH]2)c1` yielded a concentration for half-maximal inhibition (IC50) of under 100 nM.

`O=C(NCc1ccccc1)c1cnc2cc(-c3cn[nH]c3)ccn12`: the IC50 is under 100 nM.

In turn, `COc1cccc(CNC(=O)c2n[nH]c3cc(-c4cn[nH]c4)ccc23)c1` displayed a half-maximal inhibitory concentration (IC50) of under 100 nM.

Molecule `COc1cccc(CN(C)C(=O)c2cc3ccc(-c4cn[nH]c4)nc3[nH]2)c1` came in with an IC50 of under 100 nM.

`COc1cccc(CN(C)C(=O)c2cn(CCCO)c3cc(-c4cn[nH]c4)ccc23)c1`: the IC50 is under 100 nM.

Molecule `COc1cccc(CNC(=O)c2cc3ccc(-c4cn[nH]c4)nc3[nH]2)c1` registered an IC50 of under 100 nM.

Molecule `COc1cccc(CN(CCN(C)C)C(=O)c2cn3cc(-c4cn[nH]c4)ccc3n2)c1` came in with a concentration for half-maximal inhibition (IC50) of under 100 nM.

The molecule `COc1cccc(CNC(=O)c2cn(C)c3cc(-c4cn[nH]c4)ccc23)c1` displayed a half-maximal inhibitory concentration (IC50) of under 100 nM.

For `CCCn1nc(C(=O)NCc2cccc(OC)c2)c2ccc(-c3cn[nH]c3)cc21`, the IC50 was under 100 nM.

As for `COc1cccc(CNC(=O)c2nn(CC3CC3)c3cc(-c4ccnc(N)n4)ccc23)c1`, the IC50 is under 100 nM.

With `COc1ccc2c(c1)CC(c1cc(=O)n3cc(-c4ccncc4)ccc3n1)CO2` (configuration not stated), the IC50 fell in the range of 100 to 1000 nM.

Regarding `COc1cccc(CNC(=O)c2cn(-c3cccc(C(F)(F)F)c3)c3cc(-c4cn[nH]c4)ccc23)c1`, the IC50 was in the range of 100 to 1000 nM.

The molecule `COc1cccc(CN(CCN2CCCC2)C(=O)c2cc3ccc(-c4cn[nH]c4)nc3[nH]2)c1` came in with an IC50 of under 100 nM.

`COc1cccc(CNC(=O)c2cc3ccc(-c4cn[nH]c4)nc3n2CCN2CCCC2)c1` yielded a concentration for half-maximal inhibition (IC50) of under 100 nM.

On to `COc1cccc(CNC(=O)c2cc3ccc(-c4cn[nH]c4)cc3n2CCCO)c1`, for which the 50% inhibitory concentration (IC50) is under 100 nM.

`O=C(NCCc1cccnc1)c1c[nH]c2cc(-c3cn[nH]c3)ccc12` had an IC50 of 100 to 1000 nM.

Regarding `COc1cccc(CNC(=O)c2[nH]c3cc(-c4cn[nH]c4)ccc3c2CN2CCN(C)CC2)c1`, the IC50 was under 100 nM.

In the case of `COc1cccc(CNC(=O)c2c3ccc(-c4ccnc(N)n4)cc3nn2CC2CC2)c1`, the IC50 was 100 to 1000 nM.

Turning to `COc1cccc(CN(C)C(=O)c2n[nH]c3cc(-c4cn[nH]c4)ccc23)c1`, the IC50 was under 100 nM.

As for `COc1cccc(CNC(=O)c2[nH]c3cc(-c4cn[nH]c4)ccc3c2CN(C)Cc2ccccc2)c1`, the IC50 was 100 to 1000 nM.

Regarding `COc1ccc2c(c1)CC(c1cc(=O)n3cc(-c4cn[nH]c4)ccc3n1)CO2` (configuration not stated), the 50% inhibitory concentration (IC50) is under 100 nM.

Molecule `COc1cccc(CNC(=O)c2cnc3cc(-c4cn[nH]c4)ccn23)c1` displayed an IC50 of under 100 nM.

For the molecule `COc1cccc(CNC(=O)c2c3ccc(-c4cn[nH]c4)cc3nn2CC2CC2)c1`, the IC50 was in the range of 100 to 1000 nM.

On to `COc1cccc(CNC(=O)c2nn(CCN(C)C)c3cc(-c4cn[nH]c4)ccc23)c1`, for which the IC50 was under 100 nM.

On to `COc1cccc(CNC(=O)c2nn(CCN(C)C)c3cc(-c4ccncc4)ccc23)c1`, for which the IC50 is under 100 nM.

Molecule `COc1cccc(CN(C)C(=O)c2cc3ccc(-c4cn[nH]c4)cc3[nH]2)c1` had an IC50 of under 100 nM.

For the molecule `COc1cccc(CNC(=O)c2c[nH]c3cc(-c4cn[nH]c4)ccc23)c1`, the concentration for half-maximal inhibition (IC50) was under 100 nM.

On to `COc1cccc(CN(C(=O)c2cc3ccc(-c4cn[nH]c4)nc3[nH]2)C2CC2)c1`, for which the IC50 is under 100 nM.

Molecule `COc1cccc(CN(CCN(C)C)C(=O)c2cnc3cc(-c4cn[nH]c4)ccn23)c1` displayed an IC50 of under 100 nM.

`COc1cccc(CN(CCN(C)C)C(=O)c2n[nH]c3cc(-c4cn[nH]c4)ccc23)c1` registered a concentration for half-maximal inhibition (IC50) of under 100 nM.

As for `COc1cccc(CCNC(=O)c2cn(CCN(C)C)c3cc(-c4cn[nH]c4)ccc23)c1`, the IC50 is 100 to 1000 nM.

`COc1cccc(CN(CCCN2CCN(C)CC2)C(=O)c2cc3ccc(-c4cn[nH]c4)nc3[nH]2)c1`: the IC50 was under 100 nM.

For `COc1ccc(CNC(=O)c2c[nH]c3cc(-c4cn[nH]c4)ccc23)cc1`, the IC50 fell in the range of 100 to 1000 nM.

In the case of `COc1cccc(CCNC(=O)c2n[nH]c3cc(-c4cn[nH]c4)ccc23)c1`, the IC50 is under 100 nM.

The molecule `COc1cccc([C@@H](C)NC(=O)c2cn(CCN3CCCC3)c3cc(-c4cn[nH]c4)ccc23)c1` had a half-maximal inhibitory concentration (IC50) of under 100 nM.

`COc1cccc(CNC(=O)c2cc3ccc(-c4cn[nH]c4)nc3n2C)c1` displayed an IC50 of under 100 nM.

As to `Cc1ccccc1CNC(=O)c1n[nH]c2cc(-c3cn[nH]c3)ccc12`, the IC50 was under 100 nM.

In the case of `COc1cccc(CNC(=O)c2[nH]c3cc(-c4cn[nH]c4)ccc3c2CN2CCCC2c2ccccc2)c1` (configuration not stated), the IC50 lay within 100 to 1000 nM.
